The subject of the experiment is isoliert-perfundierte Mauslungen. In words: Hypoxic pulmonary vasoconstriction in the isolated perfused mouse lung (IPL). Also on record: species or system C57BU6J Mäuse. The note with it: control ΔPAP ca. 4 cmH2O, P<0,005. The protocol: Hypoxisch pulmonale Vasokonstriktion an der isoliert-perfundierten Mauslunqe (IPL)
Für die IPL wurden 10-12 Wochen alte C57BU6J Mäuse verwendet. Zu Beginn wurden die Mäuse anästhesiert (Ketamin 100mg/kg Körpergewicht (KG); Xylazin 20mg/kg KG) und mittels zervikaler Dislokation getötet. Im Anschluss wurde eine Tracheotomie durchgeführt und die Lunge in situ positiv mit normoxischem (20% O2; 5% CO2; 75% N2) Gas ventiliert (Tidalvolumen: 100 µl; Atemzüge pro Minute: Körpergewicht x 10). Anschließend wurde der Bauchraum eröffnet, das Diaphragma durchtrennt und Heparin (100 U) in den rechten Ventrikel injiziert. Nach der Eröffnung des Thorax mittels Sternotomie wurde sowohl die Pulmonalarterie als auch der linke Ventrikel kanüliert und die Lunge mit auf 37°C temperierter, gepufferter Salzlösung nach Hanks, angereichert mit Ca^2+, Mg^2+ und 10% FBS, perfundiert. Je nach Versuchsgruppe wurde das Perfusat zusätzlich mit einer Gewichts-entsprechenden Menge an Metamizol, 4-Aminoantipyrin oder 4-Methylamioantipyrin versetzt. Sobald sich der pulmonalarterielle Druck (PAP) stabilisiert hatte, wurden die Basalwerte aufgezeichnet und anschließend die Mauslunge mit hypoxischem Gas (1% O2; 5% CO2; 94% N2) ventiliert. Veränderungen des PAP wurden mithilfe eines Drucksensors P75 (Havartus apparatus) detektiert, und geben das Ausmaß der hypoxischen Vasokonstriktion der Lunge wieder.

`CNc1c(C)n(C)n(-c2ccccc2)c1=O` [4-Methylaminoantipyrin]: the “Reduktion des ΔPAP in Abhängigkeit der Konzentration” value (50-200 mg/kg KG in perfusate, hypoxic gas (1% O2; 5% CO2; 94% N2), Fig. 2) is reported as “Dosis-abhängigen Reduktion des ΔPAP”. The inhibition at 200 mg/kg (Mus musculus, 200 mg/kg KG in perfusate, ventilation switched from normoxic to hypoxic gas (1% O2; 5% CO2; 94% N2), Fig. 1, read-out: Reduktion des ΔPAP nach Umschalten auf Hypoxie) is 70%.

Source of the values: patent EP4167996B1, “METAMIZOLE DERIVATIVES FOR THE PREVENTION AND TREATMENT OF PULMONARY HYPERTENSION” (Preißner, Robert, priority 2020, dated 2021).
